pEC50, pIC50: −log10 of the molar value.
What was measured:
[1] = tested on: Human immunodeficiency virus 1; assay: Ratio of EC50 for test compound to EC50 for 4-[4-[[2-(4-cyanoanilino)pyrimidin-4-yl]amino]-3,5-dimethyl-phenyl]benzonitrile against HIV1 3B infected in human MT4 cells incubated for 5 days by MTT assay; type: functional
[2] = Aqueous solubility of compound at 2 mg measured for 24 hrs by HPLC analysis; type: physicochemical; conditions: aqueous medium
[3] = Acute toxicity in mouse assessed as change in liver at 2 mg/kg, ig measured up to 14 days by H and E staining based assay; type: organism-based; conditions: in vivo, po, 336 h
[4] = MRTinfinity in Sprague-Dawley rat at 5 mg/kg, po via gavage administration measured after 24 hrs by LCMS analysis; type: ADME, organism-based; conditions: in vivo
[5] = AUCinfinity in Sprague-Dawley rat at 1 mg/kg, iv measured after 24 hrs by LCMS analysis; type: ADME, organism-based; design: dose 1 mg/kg, route intravenous, time infinity; conditions: in vivo
[6] = AUCinfinity in Sprague-Dawley rat at 5 mg/kg, po via gavage administration measured after 24 hrs by LCMS analysis; type: ADME, organism-based; design: dose 5 mg/kg, route oral, time infinity; conditions: in vivo
[7] = Metabolic stability in rat liver microsomes at 1 uM measured up to 45 mins in presence of NADPH by LC/MS/MS analysis; type: ADME, Microsome
[8] = Intrinsic clearance in human liver microsomes assessed per mg protein at 1 uM measured up to 45 mins in presence of NADPH by LC/MS/MS analysis; type: ADME, Microsome; conditions: read-out: CLH
[9] = Intrinsic clearance in rat liver microsomes assessed per mg protein at 1 uM measured up to 45 mins in presence of NADPH by LC/MS/MS analysis; type: ADME, Microsome
[10] = Oral bioavailability in Sprague-Dawley rat at 10 mg/kg measured after 24 hrs by LCMS analysis; type: ADME, organism-based; conditions: in vivo
[11] = MRTinfinity in Sprague-Dawley rat at 1 mg/kg, iv measured after 24 hrs by LCMS analysis; type: ADME, organism-based; conditions: in vivo
[12] = Acute toxicity in mouse assessed as mortality at 2 mg/kg, ig measured up to 14 days; type: organism-based; conditions: in vivo, po, 336 h
[13] = Acute toxicity in mouse assessed as change in heart at 2 mg/kg, ig measured up to 14 days by H and E staining based assay; type: organism-based; conditions: in vivo, po, 336 h
[14] = Acute toxicity in mouse assessed as change in brain at 2 mg/kg, ig measured up to 14 days by H and E staining based assay; type: organism-based; conditions: in vivo, po, 336 h
[15] = Cmax in Sprague-Dawley rat at 10 mg/kg, po via gavage administration measured after 24 hrs by LCMS analysis; type: ADME, organism-based; design: dose 10 mg/kg, route oral; conditions: in vivo
[16] = Oral bioavailability in Sprague-Dawley rat at 5 mg/kg measured after 24 hrs by LCMS analysis; type: ADME, organism-based; conditions: in vivo
[17] = Acute toxicity in mouse assessed as change in lung at 2 mg/kg, ig measured up to 14 days by H and E staining based assay; type: organism-based; conditions: in vivo, po, 336 h
[18] = Tmax in Sprague-Dawley rat at 5 mg/kg, po via gavage administration measured after 24 hrs by LCMS analysis; type: ADME, organism-based; conditions: in vivo
[19] = AUC in Sprague-Dawley rat at 5 mg/kg, po via gavage administration measured after 24 hrs by LCMS analysis; type: ADME, organism-based; design: time < 24 hr, dose 5 mg/kg, route oral; conditions: in vivo
[20] = Acute toxicity in mouse assessed as change in behavior at 2 mg/kg, ig measured up to 14 days; type: organism-based; conditions: in vivo, po, 336 h
[21] = AUC in Sprague-Dawley rat at 10 mg/kg, po via gavage administration measured after 24 hrs by LCMS analysis; type: ADME, organism-based; design: dose 10 mg/kg, time < 24 hr, route oral; conditions: in vivo
[22] = Half life in Sprague-Dawley rat at 1 mg/kg, iv measured after 24 hrs by LCMS analysis; type: ADME, organism-based; conditions: in vivo
[23] = Half life in Sprague-Dawley rat at 10 mg/kg, po via gavage administration measured after 24 hrs by LCMS analysis; type: ADME, organism-based; conditions: in vivo
[24] = Acute toxicity in mouse assessed as change in body weight at 2 mg/kg, ig measured up to 14 days; type: organism-based; conditions: in vivo, po, 336 h
[25] = Metabolic stability in human liver microsomes at 1 uM measured up to 45 mins in presence of NADPH by LC/MS/MS analysis; type: ADME, Microsome
[26] = AUCinfinity in Sprague-Dawley rat at 10 mg/kg, po via gavage administration measured after 24 hrs by LCMS analysis; type: ADME, organism-based; design: dose 10 mg/kg, time infinity, route oral; conditions: in vivo
[27] = AUC in Sprague-Dawley rat at 1 mg/kg, iv measured after 24 hrs by LCMS analysis; type: ADME, organism-based; design: time < 24 hr, dose 1 mg/kg, route intravenous; conditions: in vivo
[28] = Cmax in Sprague-Dawley rat at 5 mg/kg, po via gavage administration measured after 24 hrs by LCMS analysis; type: ADME, organism-based; design: dose 5 mg/kg, route oral; conditions: in vivo
[29] = Acute toxicity in mouse assessed as change in kidney at 2 mg/kg, ig measured up to 14 days by H and E staining based assay; type: organism-based; conditions: in vivo, po, 336 h
[30] = MRTinfinity in Sprague-Dawley rat at 10 mg/kg, po via gavage administration measured after 24 hrs by LCMS analysis; type: ADME, organism-based; conditions: in vivo
[31] = Tmax in Sprague-Dawley rat at 10 mg/kg, po via gavage administration measured after 24 hrs by LCMS analysis; type: ADME, organism-based; conditions: in vivo
[32] = Half life in Sprague-Dawley rat at 5 mg/kg, po via gavage administration measured after 24 hrs by LCMS analysis; type: ADME, organism-based; conditions: in vivo
[33] = tested on: Human immunodeficiency virus 1; assay: Ratio of EC50 for efavirenz to EC50 for test compound for antiviral activity against HIV1 harboring reverse transcriptase L100I mutant infected in human MT4 cells assessed as reduction in virus-induced cytopathic effect incubated for 5 days by MTT assay; type: functional
[34] = tested on: Human immunodeficiency virus 1; assay: Antiviral activity against HIV1 harboring reverse transcriptase K103N mutant infected in human MT4 cells assessed as reduction in virus-induced cytopathic effect incubated for 5 days by MTT assay; type: functional, organism-based; conditions: Human immunodeficiency virus 1, MT4, 120 h
[35] = tested on: Human immunodeficiency virus 1; assay: Antiviral activity against HIV1 harboring reverse transcriptase Y181C mutant infected in human MT4 cells assessed as reduction in virus-induced cytopathic effect incubated for 5 days by MTT assay; type: functional, organism-based; conditions: Human immunodeficiency virus 1, MT4, 120 h
MT4 = assay: Cytotoxicity against human MT4 cells assessed as reduction in cell viability incubated for 5 days by MTT assay; type: functional; conditions: MT4, 120 h
[36] = tested on: Human immunodeficiency virus 1; assay: Ratio of EC50 for etravirine to EC50 for test compound for antiviral activity against HIV1 harboring reverse transcriptase L100I mutant infected in human MT4 cells assessed as reduction in virus-induced cytopathic effect incubated for 5 days by MTT assay; type: functional
[37] = target: Human immunodeficiency virus type 1 reverse transcriptase (Human immunodeficiency virus 1) (UniProt Q72547); assay: Ratio of IC50 for nevirapine to IC50 for test compound for recombinant wild type HIV1 reverse transcriptase p66/p51
[38] = target: Human immunodeficiency virus type 1 reverse transcriptase (Human immunodeficiency virus 1, UniProt Q72547); assay: Inhibition of recombinant wild type HIV1 reverse transcriptase p66/p51 incubated for 40 mins by picogreen dye-based spectrofluorometric analysis
[39] = tested on: Human immunodeficiency virus 1; assay: Antiviral activity against HIV1 harboring reverse transcriptase L100I mutant infected in human MT4 cells assessed as reduction in virus-induced cytopathic effect incubated for 5 days by MTT assay; type: functional, organism-based; conditions: Human immunodeficiency virus 1, MT4, 120 h
[40] = tested on: Human immunodeficiency virus 1; assay: Antiviral activity against HIV1 3B infected in human MT4 cells incubated assessed as reduction in virus-induced cytopathic effect for 5 days by MTT assay; type: functional, organism-based; conditions: Human immunodeficiency virus 1, 3B, MT4, 120 h
[41] = tested on: Human immunodeficiency virus 1; assay: Antiviral activity against HIV1 harboring reverse transcriptase Y188L mutant infected in human MT4 cells assessed as reduction in virus-induced cytopathic effect incubated for 5 days by MTT assay; type: functional, organism-based; conditions: Human immunodeficiency virus 1, MT4, 120 h
[42] = tested on: Human immunodeficiency virus 1; assay: Ratio of EC50 for rilpivirine to EC50 for test compound for antiviral activity against HIV1 harboring reverse transcriptase L100I mutant infected in human MT4 cells assessed as reduction in virus-induced cytopathic effect incubated for 5 days by MTT assay; type: functional
[43] = tested on: Human immunodeficiency virus 1; assay: Antiviral activity against HIV1 harboring reverse transcriptase E138K mutant infected in human MT4 cells assessed as reduction in virus-induced cytopathic effect incubated for 5 days by MTT assay; type: functional, organism-based; conditions: Human immunodeficiency virus 1, MT4, 120 h
[44] = Selectivity index, ratio of CC50 for human MT4 cells to EC50 for antiviral activity against HIV1 3B infected in human MT4 cells incubated for 5 days by MTT assay; type: toxicity, cell-based; conditions: MT4 cells (uninfected for CC50; HIV-1 3B infected for EC50)
[45] = Oral bioavailability in Sprague-Dawley rat at 1 mg/kg measured after 24 hrs by LCMS analysis; type: ADME, organism-based; conditions: in vivo

N#Cc1ccc(Nc2nc(Oc3ccc(-c4ccc(C#N)cc4)c(F)c3F)c3sccc3n2)cc1
Ratio EC50 [1]: 14

N#Cc1ccc(Nc2nccc(Nc3c(F)cc(-c4ccc(C#N)cc4)cc3F)n2)cc1.O=S(=O)(O)c1ccccc1
solubility at 24 h [2]: 0.39 µg/mL

Cl.N#Cc1ccc(Nc2nccc(Nc3c(F)cc(-c4ccc(C#N)cc4)cc3F)n2)cc1
Activity [3]: Non-Toxic | solubility at 24 h [2]: 5.6 µg/mL | MRT inf [4]: 8.37 h | AUC(0-inf) [5]: 3640 ng·h/mL | AUC(0-inf) [6]: 8000 ng·h/mL | k el at 0.75 h, 1 µM ([7]; liver microsomes): 0.000262 s⁻¹ | t1/2 ([7]; microsomes, 0.75 h, 1 µM): 0.738 h | microsomal CLint at 1 µM [8]: 21.9 µL/min/mg | CLH ([9]; microsomes, 0.75 h, 1 µM): 44.3 µL/min/mg | bioavailability [10]: 33.6% | MRT inf [11]: 4.69 h | Activity [12]: Non-Toxic | Activity [13]: Non-Toxic | Activity [14]: Non-Toxic | Cmax [15]: 1230 ng/mL | bioavailability [16]: 44% | Activity [17]: Non-Toxic | Tmax [18]: 5.33 h | AUC at 24 h [19]: 7890 ng·h/mL | Activity [20]: Non-Toxic | AUC at 24 h [21]: 12100 ng·h/mL | half-life [22]: 4.18 h | half-life [23]: 3.18 h | Activity [24]: Non-Toxic | half-life at 1 µM [25]: 0.527 h | k el at 0.75 h, 1 µM [25]: 0.000365 s⁻¹ | AUC(0-inf) [26]: 12200 ng·h/mL | AUC at 24 h [27]: 3560 ng·h/mL | Cmax [28]: 887 ng/mL | Activity [29]: Non-Toxic | MRT inf [30]: 8.27 h | Tmax [31]: 6.67 h | half-life [32]: 3.23 h

Cc1cc(-c2ccc(C#N)cc2)cc(C)c1Nc1ccnc(Nc2ccc(C#N)cc2)n1
solubility at 24 h [2]: < 1 µg/mL | half-life at 1 µM ([7]; liver microsomes): 0.257 h | k el at 0.75 h, 1 µM ([7]; liver microsomes): 0.00075 s⁻¹ | microsomal CLint at 1 µM [8]: 47.4 µL/min/mg | microsomal CLint at 1 µM ([9]; liver microsomes, read-out: CLH): 45 µL/min/mg | k el at 0.75 h, 1 µM [25]: 0.00079 s⁻¹

Cc1cc(-c2ccc(C#N)cc2)cc(Cl)c1Oc1ccnc(Nc2ccc(C#N)cc2)n1
Ratio EC50 [33]: 2 - 568 | pEC50 [34]: > 8.37 | pEC50 [35]: 7.98 | CC50 (MT4): > 286000 nM | Ratio EC50 [36]: 2 - 568 | Ratio IC50 [37]: 21 to 109 | pIC50 [38]: 7.97 | pEC50 [39]: > 8.43 | pEC50 [40]: 8.47 | pEC50 [41]: 6.70 | Ratio EC50 [42]: 2 - 568 | pEC50 [43]: 8.18 | selectivity ratio at 120 h [44]: > 86200

CC(=O)O.N#Cc1ccc(Nc2nccc(Nc3c(F)cc(-c4ccc(C#N)cc4)cc3F)n2)cc1
solubility at 24 h [2]: 0.34 µg/mL

Cc1cc(/C=C/C#N)cc(C)c1Nc1ccnc(Nc2ccc(C#N)cc2)n1.Cl [RILPIVIRINE HYDROCHLORIDE]
bioavailability [45]: 32%

N#Cc1ccc(Nc2nccc(Nc3c(F)cc(-c4ccc(C#N)cc4)cc3F)n2)cc1.O=CO
solubility at 24 h [2]: 0.35 µg/mL

Source: ChEMBL document CHEMBL4354822, “Ligand-Based Design of Nondimethylphenyl-Diarylpyrimidines with Improved Metabolic Stability, Safety, and Oral Pharmacokinetic Profiles” (J Med Chem, 2019)
